Laboratory results taken from article PMC6501426 (Clinical Epigenetics, 2019).
Like-named read-outs stand apart in the source and are kept apart here.

Tests used:
[1] = system: methylated CMV promoter-driven luciferase reporter in KG-1 cells; assay: CMV-luc assay in KG-1 cells; format: cell-based, human; conditions: KG-1 CMV-luc
Protocol: The assay was carried out as described by Rilova et al.. The KG-1 cell line was stably transfected with the luciferase firefly (Luc^+ from pGL3 by Promega, Madison, WI, USA) reporter gene under the control of a methylated CMV promoter (from pEGFP-N1 by Clontech) and selected for the maintenance of the methylation of CMV and luciferase expression silencing (KG-1 CMV-luc). The stably integrated KG-1 CMV-luc cells are cultivated in RPMI-1640 medium (Lonza, Strasbourg, France), supplemented with 10% FCS (Lonza, Strasbourg, France) and 0.5 mg/mL of geneticin (Sigma-Aldrich, Saint-Quentin Fallavier, France), under 5% CO2, at 37 °C and seeded at 20,000 cells per well in 96-well plates. After 5 or 24 h of incubation in the presence of compounds or the solvent DMSO, the induction of the promoter is measured by quantification of luciferase with the Brite-lite assay system (PerkinElmer, Villebon-sur-Yvette, France) according to the manufacturer’s protocol. The luminescence is measured on an EnVision™ Multilabel Plate Reader (PerkinElmer, Villebon-sur-Yvette, France), and the data are expressed as fold induction compared to DMSO control. The mean of 2–4 experiments and its standard error are reported.
(§1) Afterwards, MC3353 was tested in KG-1 leukemia cells for its ability to reactivate gene expression in a stably integrated luciferase reporter construction under the control of a CMV promoter inhibited by DNA methylation (CMV-luc assay). After 5 or 24 h of incubation in the presence of drugs at the indicated concentrations, the luciferase signal was measured and normalized to the value of the non-treated cells (Table 2). Since the CMV-luc assay is highly compromised when the tested compounds induce cell death, the cytotoxicity of MC3353 against KG-1 cells at 5 and 24 h was determined in parallel. MC3353 was highly toxic for KG-1 cells after 24 h of treatment starting from a concentration of 1 μM (Additional file 1: Table S1 and indicated in stars in Table 2).

[2] = system: KG-1 cells; assay: Antiproliferative activity in KG-1 cells (Table S1); format: cell-based; conditions: Homo sapiens, read-out: % inhibition of proliferation, KG-1 cells
Protocol: To determine the antiproliferative activity of MC3353 in KG-1 cells, the cells were seeded at day 0 in a 96-well plate and treated with test compound solutions at a dose range spanning from 3.2 × 10^−9 to 1 × 10^−5 M at days 1, 2, and 3. On day 4, cell viability was assessed using the ATPLite kit (PerkinElmer, Villebon-sur-Yvette, France).
as §1

[3] = system: KG-1; assay: Cell viability, trypan blue exclusion; format: cell-based, human
Protocol: (§2) U-937 (acute myeloid leukemia), RAJI (Burkitt’s lymphoma), PC-3 (prostate cancer), and MDA-MB-231 (breast cancer) cell lines were obtained from the Deutsche Sammlung für Mikroorganismen and Zellkulturen (DSZM, Braunschweig, Germany) and were cultured in RPMI 1640 (Lonza, Verviers, Belgium) complemented with 10% FBS (Lonza, Verviers, Belgium) and 1% antibiotic-antimycotic (Lonza). RPMI1788 (normal B lymphocytes) and KG-1 (acute myeloid leukemia) cell lines were obtained from the American Type Culture Collection (ATCC) and were maintained in RPMI 1640 complemented with 20% FBS and IMDM complemented with 10% FBS, respectively. Cell lines were treated with compounds at the indicated concentrations in the exponential growth phase.
(§3) Proliferation and viability of U-937, KG-1, RAJI, PC-3, MDA-MB-231, RPMI1788, PBMCs, and PHA_PBMCs were assessed by trypan blue exclusion assays at the indicated time points. Nuclear morphology changes associated with apoptosis and necrosis were evaluated by fluorescence microscopy after Hoechst and propidium iodide (PI) staining as previously described.
(§4) IC50 values of compounds against cellular viability were determined by using nonlinear regression fitting curves with GraphPad Prism 8 or CalcuSyn software The t test used for statistical analyses was performed with GraphPad Prism 8. All the tests were one-tailed, and a p value < 0.05 was considered statistically significant.

[4] = system: MDA-MB-231; assay: Cell viability, trypan blue exclusion; format: cell-based, human
Protocol: as §2, §3, §4

[5] = system: PC-3; assay: Cell viability, trypan blue exclusion; format: cell-based, human
Protocol: as §2, §3, §4

[6] = system: RAJI; assay: Cell viability, trypan blue exclusion; format: cell-based, human
Protocol: as §2, §3, §4

[7] = system: U-937; assay: Cell viability, trypan blue exclusion; format: cell-based, human
Protocol: as §2, §3, §4

[8] = system: KG-1, U-937, RAJI, PC-3, MDA-MB-231 cancer cells; assay: Viability in panel of cancer cells; format: cell-based; conditions: Homo sapiens, 48 h of treatment, range over KG-1, U-937, RAJI, read-out: IC50 values, proliferation/viability in cancer cell panel
Protocol: as §3, §4

[9] = target: T1, Abl kinase (h) (Homo sapiens, UniProt P00519); assay: Kinase panel (ExpresS Diversity Kinase Profile, Cerep); format: biochemical; conditions: read-out: % inhibition at 10 µM by MC3353, Abl kinase (h), ATP 10 μM
T1 construct: purchased Eurofins Cerep
Protocol: The test compound, reference compound or water (control) were mixed with the enzyme (for the exact amount see table below) in the appropriate buffer. Thereafter, the reaction was initiated by adding the required amount of the appropriate substrate and of ATP, and the mixture is incubated at room temperature (variable reaction time, see table below). For control basal measurements, the enzyme was omitted from the reaction mixture. Following incubation, the reaction was stopped by adding 13 mM EDTA. After 5 min, the proper antibody labelled with europium chelate was added. After 60 more min, the fluorescence transfer was measured at λex=337 nm, λem=620 nm and λem=665 nm using a microplate reader (Envision, Perkin Elmer). The enzyme activity was determined by dividing the signal measured at 665 nm by that measured at 620 nm (ratio). The results are expressed as a percent inhibition of the control enzyme activity.

T1 sequence (P00519 whole entry): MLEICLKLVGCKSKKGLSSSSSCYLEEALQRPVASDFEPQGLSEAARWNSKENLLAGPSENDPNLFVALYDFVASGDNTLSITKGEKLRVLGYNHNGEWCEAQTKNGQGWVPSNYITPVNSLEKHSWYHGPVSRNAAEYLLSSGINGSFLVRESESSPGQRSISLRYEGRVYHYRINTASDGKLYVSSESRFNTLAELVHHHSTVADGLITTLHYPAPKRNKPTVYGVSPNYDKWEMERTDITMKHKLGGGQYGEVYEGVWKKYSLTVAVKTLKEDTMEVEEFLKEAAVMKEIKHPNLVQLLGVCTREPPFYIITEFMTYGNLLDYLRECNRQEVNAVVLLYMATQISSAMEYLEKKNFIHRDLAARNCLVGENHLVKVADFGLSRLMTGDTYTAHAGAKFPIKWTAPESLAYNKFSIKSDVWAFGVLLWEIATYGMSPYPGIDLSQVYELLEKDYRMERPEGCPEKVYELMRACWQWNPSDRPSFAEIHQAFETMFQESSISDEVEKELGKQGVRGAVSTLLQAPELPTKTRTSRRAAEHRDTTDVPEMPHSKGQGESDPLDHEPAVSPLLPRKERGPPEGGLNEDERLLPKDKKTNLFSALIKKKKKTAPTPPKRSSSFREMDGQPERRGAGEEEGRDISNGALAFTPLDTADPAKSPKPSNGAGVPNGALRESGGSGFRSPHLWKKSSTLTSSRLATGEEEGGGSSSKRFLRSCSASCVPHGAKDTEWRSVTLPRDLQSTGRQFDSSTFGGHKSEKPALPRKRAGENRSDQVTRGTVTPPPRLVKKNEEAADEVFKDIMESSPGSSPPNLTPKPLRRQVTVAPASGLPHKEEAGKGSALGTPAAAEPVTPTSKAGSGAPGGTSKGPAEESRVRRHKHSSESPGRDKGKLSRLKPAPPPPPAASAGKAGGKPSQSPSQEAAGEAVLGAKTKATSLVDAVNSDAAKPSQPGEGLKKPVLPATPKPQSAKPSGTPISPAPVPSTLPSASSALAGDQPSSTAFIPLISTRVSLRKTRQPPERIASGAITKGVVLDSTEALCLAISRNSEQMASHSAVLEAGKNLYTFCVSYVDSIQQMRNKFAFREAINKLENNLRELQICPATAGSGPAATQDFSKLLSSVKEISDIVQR

SMILES: O=C(Nc1ccc(NC(=O)c2ccc(Nc3ccnc4ccccc34)cc2)cc1)OCc1ccccc1 [MC3353, Benzyl (4-(4-(quinolin-4-ylamino)benzamido)phenyl)carbamate]
- Luciferase expression (fold ± SD) ([1]; 0.1 μM, 5 h): 1.0 ± 0.05 fold
- Luciferase expression (fold ± SD) ([1]; 0.1 μM, 24 h): 1.1 ± 0.1 fold
- Luciferase expression (fold ± SD) ([1]; 1 μM, 5 h): 5.8 ± 0.9 fold
- Luciferase expression (fold ± SD) ([1]; 1 μM, 24 h): 4.4 ± 3.5 fold
- Luciferase expression (fold ± SD) ([1]; 5 μM, 5 h): 6.7 ± 0.8 fold
- inhibition at 0.1 µM ([2]; 5h): 5.5%
- inhibition at 0.1 µM ([2]; 24h): 2.9%
- inhibition at 1 µM ([2]; 5h): 17.7%
- inhibition at 1 µM ([2]; 24h): 98.7%
- inhibition at 5 µM ([2]; 5h): 81.2%
- inhibition at 5 µM ([2]; 24h): 100%
- inhibition at 10 µM ([2]; 5h): 96.8%
- inhibition at 10 µM ([2]; 24h): 100%
- Selectivity index (IC50 PBMCs/IC50 cell line), KG-1 ([3]; 48 h): (26.2)
- Selectivity index (IC50 PHA_PBMCs/IC50 cell line), KG-1 ([3]; 48 h): (13.5)
- Selectivity index (IC50 RPMI1788/IC50 cell line), KG-1 ([3]; 48 h): (7.2)
- IC50 ([3]; Homo sapiens, KG-1, 48 h of treatment, read-out: IC50 ± SD, cell viability, KG-1): 300 nM
- Selectivity index (IC50 PBMCs/IC50 cell line), MDA-MB-231 ([4]; 48 h): (9.7)
- Selectivity index (IC50 PHA_PBMCs/IC50 cell line), MDA-MB-231 ([4]; 48 h): (5.0)
- Selectivity index (IC50 RPMI1788/IC50 cell line), MDA-MB-231 ([4]; 48 h): (2.6)
- IC50 ([4]; Homo sapiens, MDA-MB-231, 48 h of treatment, read-out: IC50 ± SD, cell viability, MDA-MB-231): 900 ± 700 nM
- Selectivity index (IC50 PBMCs/IC50 cell line), PC-3 ([5]; 48 h): (9.8)
- Selectivity index (IC50 PHA_PBMCs/IC50 cell line), PC-3 ([5]; 48 h): (5.1)
- Selectivity index (IC50 RPMI1788/IC50 cell line), PC-3 ([5]; 48 h): (2.7)
- IC50 ([5]; Homo sapiens, PC-3, 48 h of treatment, read-out: IC50 ± SD, cell viability, PC-3): 900 ± 400 nM
- Selectivity index (IC50 PBMCs/IC50 cell line), RAJI ([6]; 48 h): (23.1)
- Selectivity index (IC50 PHA_PBMCs/IC50 cell line), RAJI ([6]; 48 h): (11.9)
- Selectivity index (IC50 RPMI1788/IC50 cell line), RAJI ([6]; 48 h): (6.3)
- IC50 ([6]; Homo sapiens, Raji, 48 h of treatment, read-out: IC50 ± SD, cell viability, RAJI): 400 nM
- Selectivity index (IC50 PBMCs/IC50 cell line), U-937 ([7]; 48 h): (24.0)
- Selectivity index (IC50 PHA_PBMCs/IC50 cell line), U-937 ([7]; 48 h): (12.4)
- Selectivity index (IC50 RPMI1788/IC50 cell line), U-937 ([7]; 48 h): (6.6)
- IC50 ([7]; Homo sapiens, U-937, 48 h of treatment, read-out: IC50 ± SD, cell viability, U-937): 400 nM
- IC50 [8]: 300 to 900 nM
- inhibition at 10 µM [9]: 0%
